Results reported in paper PMC9496155, “Amaryllidaceae Alkaloids Decrease the Proliferation, Invasion, and Secretion of Clinically Relevant Cytokines by Cultured Human Colon Cancer Cells” (Biomolecules, 2022).
Like-named read-outs stand apart in the source and are kept apart here.

Key:
MMP-1, -2, -7, -9, -13 = assay: Luminex assay of MMP secretion in HCT-116 and LoVo cell supernatants; format: cell-based, human; settings: 24 h, both cell lines (HCT-116, LoVo)
Source text: (§1) We ordered a customized Luminex® assay to quantify 15 targets at once from Biotechne (reference LXSAHM-15; R&D Systems, Abingdon, U.K.). The 15 targets were chosen on the basis of the literature as follows: the relevant metalloproteinases MMP-1, -2, -7, -9, -13 [49] and the cytokines associated with dismal prognosis or shorter disease-free survival period: C-C motif chemokine ligand (CCL) -4, CCL-22, Flt-3 ligand, IL-1β, IL-2, IL-6, IL-8, interferon gamma (IFNγ), vascular endothelial growth factor (VEGF), and pentraxin-3 [50]. Samples were prepared as follows: HCT-116 or LoVo cells were seeded in 6-well plates and allowed to adhere and grow until they reached 70% confluency. The culture medium was replaced by 1.5 mL of culture medium containing only 0.5% of FBS with or without the compounds to be tested (NAR at 80 nM, LYC at 6 µM, and HAE at 6 µM). After 24 h of treatment, supernatants were collected, aliquoted, and kept frozen at −80 °C. Three independent series of samples were prepared. […] We thus decided to concentrate several aliquots of our supernatant samples by centrifugation of 500 µL of supernatant with Amicon Ultra 0.5 mL filters characterized by a 3 kDa cut-off (UFC500324; Millipore, Merck, Hoeilaart, Belgium) leading to a final volume of 150 µL (3.3 times concentrated). The Luminex® assay was conducted according to manufacturer’s recommendations. Data were collected on a Bioplex-200 (Bio-Rad, Temse, Belgium).

DLD-1 = assay: MTT viability assay, DLD-1; format: cell-based, human; settings: TP53 mutant, mean of six replicates of one experiment, read-out: IC50 Cancer Cell Lines (C) DLD-1
Description: (§2) HCT-116 (CCL-247), LoVo (CCL-229), DLD-1 (CCL-221), HT-29 (HTB-38) and CoN (CCD-841) human CRC cells were obtained from the ATCC (Manassas, VA, USA). HCT-116 cells were cultured in Dulbecco’s Modified Eagle’s Medium (DMEM; Corning Cellgro, Corning, NY, USA) for the invasion assays or RPMI-1640 medium (Lonza, Westburg, The Netherlands) for all other assays. The LoVo, DLD-1, and HT-29 cell lines were grown in RPMI-1640 for all experiments. Media were supplemented with 10% fetal bovine serum (FBS; Gibco, Waltham, MA, USA or Greiner Bio-One, Vilvoorde, Belgium), 100 U/mL penicillin, and 100 µg/mL streptomycin (Gibco, Waltham, MA). Cells were grown at 37 °C and 5% CO2 in a humidified atmosphere. The CoN cells were cultured in Eagle’s Minimum Essential Medium (Lonza, Westburg, The Netherlands) supplemented with 10% FBS (South America origin, Greiner Bio-One, Vilvoorde, Belgium). HCT-116 p53^-/- cells were obtained from Denis L.J. LaFontaine, Université Libre de Bruxelles, Brussels, Belgium.
(§3) Effects of compounds on viability were assessed by means of 3-(4,5-dimethylthiazol-2-yl)-2,5-diphenyltetrazolium bromide (MTT; Sigma-Aldrich, Diegem, Belgium) colorimetric assay as previously reported. Briefly, cells were seeded in flat-bottom 96-well plates at the appropriate cell density 24 h prior to the exposure or not to the compound of interest. Each compound was first solubilized in dimethylsulfoxide (DMSO) at 10^−2 M concentration and further diluted in a serial manner in the culture medium. Nine concentrations ranging from 10 nM to 100 µM were tested in sextuplicate within the assay. Evaluation of the cell viability was conducted after 72 h of exposure to the compound by means of MTT assay.

IL-8 = assay: Luminex assay of IL-8 in HCT-116 and LoVo cell supernatants; format: cell-based, human; settings: 24 h
Source text: as §1, with “Data were collected on a Bioplex-200 (Bio-Rad, Temse, Belgium).” left out

HT-29 = assay: MTT viability assay, HT-29; format: cell-based, human; settings: TP53 mutant, mean of six replicates of one experiment, read-out: IC50 Cancer Cell Lines (C) HT-29
Description: as §2, §3

HCT-116^-/- = assay: MTT viability assay, HCT-116-/- (p53-null); format: cell-based, human; settings: mean of six replicates of one experiment, read-out: IC50 Cancer Cell Lines (C) HCT-116-/-
Description: as §2, §3

LoVo = assay: MTT viability assay, LoVo; format: cell-based, human; settings: 72 h of exposure, TP53 wild type, mean of six replicates of one experiment, read-out: IC50 Cancer Cell Lines (C) LoVo
Description: as §2, §3

[1] = tested on: Cancer Cell Lines (LoVo, HCT-116^+/+, HCT-116^-/-, HT-29, DLD-1); assay: MTT viability assay, mean over the five colon cancer cell lines and ratio to CoN; format: cell-based, human; settings: for Ratio N/C: IC50 CoN / mean IC50 cancer cells
Description: as §2, §3

HCT-116 cells [2] = assay: Invasion assay, Matrigel-coated Boyden chambers, HCT-116; format: cell-based, human; settings: for cell invasion, % of vehicle control: 24 h, corrected for adherent cells
Description: Prior to seeding HCT-116 cells in the invasion chambers, the medium was removed and cells were washed twice with phosphate buffered saline and incubated in DMEM lacking FBS for 48 h before seeding at a density of 1 × 10^5 cells/well into the upper portion of Matrigel-coated invasion chambers (Corning Biocoat, Corning, NY, USA), as described previously by our group in [47, 48]. The upper portion of each chamber contained cells suspended in serum-free DMEM containing DMSO vehicle alone or increasing concentrations of the Amaryllidaceae alkaloids NAR, LYC, and HAE. […] The lower portion of each chamber contained DMEM supplemented with 10% FBS. The FBS served as a chemoattractant. A polyethylene terephthalate (PET) membrane, containing 8 μm pores and coated with Matrigel basement membrane matrix, separated the upper and lower portions of the invasion chamber. After 24 h, chambers were removed and the cells that had not invaded were removed from within the chamber using a cotton swab. The cells that had invaded through and adhered to the bottom of the PET membrane separating the chambers were fixed with methanol and stained with 0.5% crystal violet (Sigma-Aldrich, St. Louis, MO, USA). Five random images were taken of the bottom of each membrane using a Cytation 5 Cell Imaging Multi-Mode Reader (Winooski, VT, USA). The cells in each image were counted using Image J (NIH, Bethesda, MD, USA).
To correct for the inhibitory effects of the Amaryllidaceae alkaloids on cell proliferation, cells from the same biological repeat were seeded in parallel in 24-well tissue culture plates at a density of 1 × 10^5 cells/well in DMEM containing 5% FBS (the average of the FBS concentrations in the upper and lower chambers) and supplemented with vehicle or increasing concentrations of the alkaloids. These wells were not coated with Matrigel. The medium was removed, and the adherent cells were trypsinized and counted 24 h after treatment using a hemocytometer. To compare cell invasion across treatments, cell invasion was corrected for adherent cell proliferation and expressed as % vehicle control.

CoN = assay: MTT viability assay, CoN normal colon epithelial cell line; format: cell-based, human; settings: 72 h of exposure, mean of six replicates of one experiment, read-out: IC50 Normal Cell Line (N) CoN
Description: as §2, §3

HCT-116^+/+ = assay: MTT viability assay, HCT-116+/+; format: cell-based, human; settings: functional p53, mean of six replicates of one experiment, read-out: IC50 Cancer Cell Lines (C) HCT-116+/+
Description: as §2, §3

VEGF = assay: Luminex assay of VEGF in HCT-116 and LoVo cell supernatants; format: cell-based, human; settings: 24 h, both cell lines
Source text: as §1, with “Data were collected on a Bioplex-200 (Bio-Rad, Temse, Belgium).” left out

[3] = tested on: subpanel of CRC cell lines; settings: NCI DTD 60 cell line screen; cited from earlier work
LoVo cells [4] = assay: Invasion assay, Matrigel-coated Boyden chambers, LoVo; format: cell-based, human; settings: 6 µM, 24 h, corrected for adherent cells
LoVo cells [5] = assay: Adhesion assay (crystal violet), LoVo; format: cell-based, human; settings: 0.08 µM, 15 h, 0.5% FBS, one experiment
Description: (§4) To evaluate the effects of the compounds on cell adhesion, 75000 HCT-116 or LoVo cells per well were seeded in 96-well flat-bottom plates in the presence or absence of each compound tested at three concentrations. In the first set of experiments, cells were allowed to adhere for 1, 5, 8, and 24 h and cultured with 10% FBS. Three independent experiments were performed each in sextuplicate to examine the time course of adhesion when grown with 10% FBS and increasing concentrations of each compound. In the second set of experiments cells were allowed to adhere for 15 h in a medium containing only 0.5% FBS to limit the contribution of proliferation to the results.
(§5) At the end of the incubation period, the plate was rinsed with phosphate buffered saline (PBS), fixed with 17.5% of formaldehyde at 4 °C for 15 min, and washed with deionized water twice before staining with 0.1% crystal violet (Sigma-Aldrich, Diegem, Belgium) in a 50:50 methanol/water mixture for 15 min. After extensive washes with water to remove any free crystal violet, the dye within the cells was extracted and solubilized in 100 µL of a 33% acetic acid solution and absorbance was measured at 570 nm (680XR, Bio-Rad Laboratories, Berkeley, CA, USA; reference wavelength 610 nm). The mean absorbance of the untreated control well was set at 100% for comparison. […]

HCT-116 cells [6] = assay: Adhesion assay (crystal violet), HCT-116; format: cell-based, human; settings: 0.08 µM, 15 h, 0.5% FBS, one experiment
Description: as §4, §5

[7] = tested on: HT-29 p53-deficient and HCT-116 p53 wild-type models; design: method as in PMID 21220492; settings: cited from earlier work
[8] = Homo sapiens, DLD-1, 72 h of exposure
[9] = Homo sapiens, HT-29, 72 h of exposure
[10] = Homo sapiens, HCT-116, 72 h of exposure
[11] = Homo sapiens, mean over five cancer cell lines, MTT, 72 h, read-out: Mean IC50 Cancer Cells

O[C@H]1[C@H]2c3cc4c(cc3CN3CCC(=C[C@@H]1O)[C@H]23)OCO4 [LYC, lycorine]
secretion of MMP-1, -2, and -7 (MMP-1, -2, -7, -9, -13; 6 µM): markedly decrease
IC50 (DLD-1; [8]): 2900 nM
IL-8 secretion (IL-8; LYC 6 µM, both cellular models): reduced
IC50 (HT-29; [9]): 3900 nM
IC50 (HCT-116^-/-; [10]): 2600 nM
IC50 (LoVo; Homo sapiens, LoVo): 5500 nM
IC50 ([1]; Homo sapiens, after 72 h of exposure, regardless of TP53 status, read-out: IC50s against all cancer cell lines): ~3000 nM
IC50 [1, 11]: 3200 nM
Ratio N/C [1]: 24
invasion of HCT-116 cells (HCT-116 cells [2]; 1.5 µM, not dose-dependent): reduced
IC50 (CoN; Homo sapiens, Epithelial cell): 79000 nM
IC50 (HCT-116^+/+; [10]): 1300 nM
VEGF levels, times decreased (VEGF; 6 µM): ≤ 10 times
GI50 [3]: 1990 nM
residual invasion rate (LoVo cells [4]): 37.4 ± 7.8%

O=C1N[C@@H]2C(=C[C@H](O)[C@@H](O)[C@H]2O)c2cc3c(c(O)c21)OCO3 [NAR, narciclasine]
secretion of MMP-1, -2, and -7 (MMP-1, -2, -7, -9, -13; 0.08 µM): markedly decrease
maximal inhibition of cell adhesion (LoVo cells [5]): 18%
IC50 (DLD-1; 72 h of exposure): 30 nM
IL-8 levels (IL-8; HCT-116 cells, NAR 80 nM, in comparison to LYC): opposite effects
IC50 (HT-29; 72 h of exposure): 32 nM
IC50 (HCT-116^-/-; 72 h of exposure): 29 nM
IC50 (LoVo): 52 nM
Ratio N/C [1]: 32
times more potent than PANC ([1]; MTT IC50 comparison NAR vs PANC): 10 times
IC50 ([1]; mean over five cancer cell lines, MTT, 72 h, read-out: Mean IC50 Cancer Cells): 33 nM
cell invasion, % of vehicle control (HCT-116 cells [2]; 0.04 µM): 41.1 ± 4.3%
cell invasion, % of vehicle control (HCT-116 cells [2]; 0.08 µM): 13.6 ± 4.8%
IC50 (CoN): 1100 nM
IC50 (HCT-116^+/+; 72 h of exposure): 23 nM
VEGF levels, times decreased (VEGF; 0.08 µM): up to 5 times
GI50 [3]: 45.7 nM
inhibition of cell adhesion (HCT-116 cells [6]): 39%

O=C1N[C@H]2[C@H](O)[C@H](O)[C@@H](O)[C@H](O)[C@@H]2c2cc3c(c(O)c21)OCO3 [PANC, pancratistatin]
IC50 (DLD-1; [8]): 280 nM
IC50 (HT-29; [9]): 300 nM
IC50 (HCT-116^-/-; [10]): 160 nM
IC50 (LoVo; Homo sapiens, LoVo): 590 nM
IC50 [1, 11]: 300 nM
Ratio N/C [1]: 8
IC50 (CoN; Homo sapiens, Epithelial cell): 2400 nM
IC50 (HCT-116^+/+; [10]): 170 nM
GI50 [3]: 263 nM
IC50 [7]: 100 nM
